Laboratory results: ChEMBL document CHEMBL5214936, “Synthesis and evaluation of glycosylated quercetin to enhance neuroprotective effects on cerebral ischemia-reperfusion” (Bioorg Med Chem, 2022)
Activity calls are given as the source filed them. No cut-off for these calls is given here.

How the values were obtained:
[1] = Cytotoxicity against mouse BEND3 cells assessed as inhibition of cell viability at 2.5 to 50 uM incubated for 24 hrs by MTT assay; format: toxicity, cell-based; conditions: dose 2.5-50 µM, read-out: Activity
[2] = system: Rattus norvegicus; assay: Neuroprotective activity against middle cerebral artery occlusion induced cerebral ischemia reperfusion rat model assessed decrease in morphological changes in brain at 10 mg/kg, ip preincubated for 0.5 hrs followed by reperfusion and measured after 24 hrs by hematoxylin and eosin staining based microscopy; format: functional, organism-based
[3] = system: PC-12; assay: Neuroprotective activity against H2O2-induced cytotoxicity in rat PC12 cells assessed as increase in cell viability at 2.5 to 100 uM preincubated for 2 hrs followed by H2O2 stimulation and measured after 2 hrs by MTT assay; format: functional, cell-based; conditions: dose 2.5-100 µM
[4] = system: Rattus norvegicus; assay: Neuroprotective activity against middle cerebral artery occlusion induced cerebral ischemia reperfusion rat model assessed as decrease in brain MDA level at 10 mg/kg, ip preincubated for 0.5 hrs followed by reperfusion and measured after 24 hrs; format: functional, organism-based
[5] = system: Rattus norvegicus; assay: Neuroprotective activity against middle cerebral artery occlusion induced cerebral ischemia reperfusion rat model assessed as decrease in brain SOD level at 10 mg/kg, ip preincubated for 0.5 hrs followed by reperfusion and measured after 24 hrs; format: functional, organism-based
[6] = system: Rattus norvegicus; assay: Neuroprotective activity against middle cerebral artery occlusion induced cerebral ischemia reperfusion rat model assessed infarct volume volume at 10 mg/kg, ip preincubated for 0.5 hrs followed by reperfusion and measured after 24 hrs by TTC staining based assay relative to control; format: functional, organism-based
[7] = system: Rattus norvegicus; assay: Neuroprotective activity against middle cerebral artery occlusion induced cerebral ischemia reperfusion rat model assessed decrease in neuronal loss in brain at 10 mg/kg, ip preincubated for 0.5 hrs followed by reperfusion and measured after 24 hrs by hematoxylin and eosin staining based microscopy; format: functional, organism-based
[8] = system: PC-12; assay: Cytotoxicity against rat PC-12 cells assessed as inhibition of cell viability at 2.5 to 50 uM incubated for 24 hrs by MTT assay; format: toxicity, cell-based; conditions: pc-12, 24 h, dose 2.5-50 µM
[9] = system: PC-12; assay: Antioxidant activity in rat PC12 cells assessed as reduction in H2O2-induced ROS level at 20 to 100 uM preincubated for 2 hrs followed by H2O2 stimulation and measured after 2 hrs by DCFH-DA staining based fow cytometry; format: functional; set-up: scale not given: the % may be the effect or the level left; conditions: dose 20-100 µM
[10] = system: PC-12; assay: Neuroprotective activity in rat PC12 cells assessed as reduction in H2O2-induced ROS generation at 20 to 100 uM preincubated for 2 hrs followed by H2O2 stimulation and measured after 2 hrs by DCFH-DA staining based fluorescence microscopic analysis; format: functional, cell-based; conditions: dose 20-100 µM
[11] = n-Octanol-water partition coefficient, logP of the compound at 1 mg and measured after 2 hrs by HPLC analysis; format: physicochemical
[12] = Stability of compound in phosphate buffer assessed as parent compound remaining after 48 hrs by HPLC analysis; format: physicochemical; conditions: read-out: Stability
[13] = system: Rattus norvegicus; assay: Neuroprotective activity against middle cerebral artery occlusion induced cerebral ischemia reperfusion rat model assessed as increase in brain GSH level at 10 mg/kg, ip preincubated for 0.5 hrs followed by reperfusion and measured after 24 hrs; format: functional, organism-based
[14] = system: PC-12; assay: Cytotoxicity against rat PC-12 cells assessed as inhibition of cell viability at 20 to 50 uM incubated for 24 hrs by MTT assay; format: toxicity, cell-based; conditions: pc-12, 24 h, dose 20-50 µM
[15] = Cytotoxicity against mouse BEND3 cells assessed as inhibition of cell viability at 20 to 50 uM incubated for 24 hrs by MTT assay; format: toxicity, cell-based; conditions: bend3, 24 h, dose 20-50 µM

Q: For `O=c1c(O)c(-c2ccc(O)c(O)c2)oc2cc(OCc3cn(C[C@H]4O[C@@H](O)[C@H](O)[C@@H](O)[C@@H]4O)nn3)cc(O)c12`, which inhibition at 24 h, up to 50 µM [1] is on record?
A: > 80%

Q: What about the Activity [2] of the same compound?
A: Active

Q: What about the Activity [3] of the same compound?
A: Active

Q: And the Activity [4]?
A: Active

Q: What about the Activity [5] of the same compound?
A: Active

Q: What about the Activity [6] of the same compound?
A: Active

Q: And the Activity [7]?
A: Active

Q: What about the Activity [8] of the same compound?
A: > 80%

Q: And the Activity [9]?
A: 15.2%

Q: And the Activity [10]?
A: Active

Q: What about the logP at 2 h [11] of the same compound?
A: -0.23

Q: What about the remaining at 48 h [12] of the same compound?
A: 73.2%

Q: And the Activity [13]?
A: Active

Q: What does the source list for `O=c1c(O)c(-c2ccc(O)c(OCc3cn(C[C@H]4O[C@@H](O)[C@H](O)[C@@H](O)[C@@H]4O)nn3)c2)oc2cc(OCc3cn(C[C@H]4O[C@@H](O)[C@H](O)[C@@H](O)[C@@H]4O)nn3)cc(O)c12`?
A: inhibition at 24 h, up to 50 µM [1]: > 80%; Activity [2]: Active; Activity [3]: Active; Activity [4]: Active; Activity [5]: Active; Activity [6]: Active; Activity [7]: Active; Activity [8]: > 80%; Activity [9]: 5.06%; Activity [10]: Active; logP at 2 h [11]: -1.12; remaining at 48 h [12]: 81.5%; Activity [13]: Active

Q: Which results are given for `O=c1c(O)c(-c2ccc(O)c(O)c2)oc2cc(O)cc(O)c12` [QUERCETIN]?
A: Activity [2]: Active; Activity [3]: Active; Activity [4]: Active; Activity [5]: Active; Activity [6]: Active; Activity [7]: Active; Activity [9]: 21.56%; Activity [10]: Active; logP at 2 h [11]: 1.38; remaining at 48 h [12]: 11.2%; Activity [13]: Active; Activity [14]: Toxic; Activity [15]: Toxic
